Values of other authors in patent publication US20060148833A1, “Use of chymase inhibitors for the prevention and/or treatment of arterio-venous graft failure” (priority 2002, published 2006).

Tests used:
[1] = system: balloon-injured dog coronary arteries; conditions: by suppression of vascular chymase levels
[2] = system: restenosis following PTCA; conditions: oral administration over three months, clinical trials
dog carotid artery = dog carotid artery balloon injury model
vein graft = conditions: dog model of vein graft injury

SMILES | neointima formation [1] | rate of restenosis following PTCA [2] | intimal hyperplasia (dog carotid artery) | vascular proliferation and subsequent neointima formation (vein graft)
COc1ccc(C=CC(=O)Nc2ccccc2C(=O)O)cc1OC [Tranilast, N-(3,4-dimethoxycinnamoyl) anthranilic acid] | suppresses neointima formation | markedly reduce the rate of restenosis | – | –
O=CNc1cnc(-c2ccccc2)n(CC(=O)NC(Cc2ccccc2)C(=O)C(=O)CCCOc2ccccn2)c1=O (stereo not shown) [NK3201, 2-(5-formylamino-6-oxo-3-phenyl-1,6,-dihydropyrmidine-1-yl)-N-{2,3-dioxo-6-(2-pyridyloxy)-1-phenylmethyl}hexyl acetamide] | – | – | inhibit intimal hyperplasia | inhibit vascular proliferation and subsequent neointima formation
